# From ChEMBL document CHEMBL5212743, “Selectivity Literature for EUbOPEN Chemogenomics Library wave 3” (2023)
# Assays:
# [1] = biological target: T1, Sodium-dependent dopamine transporter (Homo sapiens, UniProt Q01959); experiment: Selectivity interaction (GPCR panel (PDSP screen)) EUB0000541a SLC6A3
# [2] = biological target: T1, Sodium-dependent dopamine transporter; experiment: Selectivity interaction (GPCR panel (PDSP screen)) EUB0000741a SLC6A3
# [3] = biological target: Cyclin-dependent kinase 8 (Homo sapiens) (UniProt P49336); experiment: Selectivity interaction (KinomeScan (DiscoverX)) EUB0000301b CDK8; settings: at 1 µM
# [4] = biological target: eIF-2-alpha kinase GCN2 (Homo sapiens) (UniProt Q9P2K8); experiment: Selectivity interaction (KinomeScan (DiscoverX)) EUB0000301b EIF2AK4; settings: at 1 µM
# [5] = biological target: T2, Gamma-aminobutyric acid receptor subunit alpha-1 (Homo sapiens, UniProt P14867); experiment: Selectivity interaction (GPCR panel (PDSP screen)) EUB0000301b GABRA1
# T2 sequence (P14867 whole entry): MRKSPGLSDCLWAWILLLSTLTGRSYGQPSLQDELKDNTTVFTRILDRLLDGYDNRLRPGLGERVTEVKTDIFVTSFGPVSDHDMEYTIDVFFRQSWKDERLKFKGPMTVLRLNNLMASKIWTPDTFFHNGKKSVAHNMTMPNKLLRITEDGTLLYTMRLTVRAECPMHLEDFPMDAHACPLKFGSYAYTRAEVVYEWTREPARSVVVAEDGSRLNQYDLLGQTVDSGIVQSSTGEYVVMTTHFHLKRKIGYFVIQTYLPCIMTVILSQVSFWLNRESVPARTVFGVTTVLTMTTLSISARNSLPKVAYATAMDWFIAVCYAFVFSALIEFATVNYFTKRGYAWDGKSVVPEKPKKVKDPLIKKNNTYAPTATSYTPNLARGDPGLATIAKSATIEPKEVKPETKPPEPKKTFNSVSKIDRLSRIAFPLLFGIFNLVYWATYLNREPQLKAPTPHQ
# [6] = biological target: Phosphatidylinositol 3-kinase C2 domain-containing subunit gamma (Homo sapiens) (UniProt O75747); experiment: Selectivity interaction (KinomeScan (DiscoverX)) EUB0000007b PIK3C2G; settings: at 1 µM
# Phosphatidylinositol 3-kinase C2 domain-containing subunit gamma (Homo sapiens), sequence (O75747 whole entry, the tested form may be a part): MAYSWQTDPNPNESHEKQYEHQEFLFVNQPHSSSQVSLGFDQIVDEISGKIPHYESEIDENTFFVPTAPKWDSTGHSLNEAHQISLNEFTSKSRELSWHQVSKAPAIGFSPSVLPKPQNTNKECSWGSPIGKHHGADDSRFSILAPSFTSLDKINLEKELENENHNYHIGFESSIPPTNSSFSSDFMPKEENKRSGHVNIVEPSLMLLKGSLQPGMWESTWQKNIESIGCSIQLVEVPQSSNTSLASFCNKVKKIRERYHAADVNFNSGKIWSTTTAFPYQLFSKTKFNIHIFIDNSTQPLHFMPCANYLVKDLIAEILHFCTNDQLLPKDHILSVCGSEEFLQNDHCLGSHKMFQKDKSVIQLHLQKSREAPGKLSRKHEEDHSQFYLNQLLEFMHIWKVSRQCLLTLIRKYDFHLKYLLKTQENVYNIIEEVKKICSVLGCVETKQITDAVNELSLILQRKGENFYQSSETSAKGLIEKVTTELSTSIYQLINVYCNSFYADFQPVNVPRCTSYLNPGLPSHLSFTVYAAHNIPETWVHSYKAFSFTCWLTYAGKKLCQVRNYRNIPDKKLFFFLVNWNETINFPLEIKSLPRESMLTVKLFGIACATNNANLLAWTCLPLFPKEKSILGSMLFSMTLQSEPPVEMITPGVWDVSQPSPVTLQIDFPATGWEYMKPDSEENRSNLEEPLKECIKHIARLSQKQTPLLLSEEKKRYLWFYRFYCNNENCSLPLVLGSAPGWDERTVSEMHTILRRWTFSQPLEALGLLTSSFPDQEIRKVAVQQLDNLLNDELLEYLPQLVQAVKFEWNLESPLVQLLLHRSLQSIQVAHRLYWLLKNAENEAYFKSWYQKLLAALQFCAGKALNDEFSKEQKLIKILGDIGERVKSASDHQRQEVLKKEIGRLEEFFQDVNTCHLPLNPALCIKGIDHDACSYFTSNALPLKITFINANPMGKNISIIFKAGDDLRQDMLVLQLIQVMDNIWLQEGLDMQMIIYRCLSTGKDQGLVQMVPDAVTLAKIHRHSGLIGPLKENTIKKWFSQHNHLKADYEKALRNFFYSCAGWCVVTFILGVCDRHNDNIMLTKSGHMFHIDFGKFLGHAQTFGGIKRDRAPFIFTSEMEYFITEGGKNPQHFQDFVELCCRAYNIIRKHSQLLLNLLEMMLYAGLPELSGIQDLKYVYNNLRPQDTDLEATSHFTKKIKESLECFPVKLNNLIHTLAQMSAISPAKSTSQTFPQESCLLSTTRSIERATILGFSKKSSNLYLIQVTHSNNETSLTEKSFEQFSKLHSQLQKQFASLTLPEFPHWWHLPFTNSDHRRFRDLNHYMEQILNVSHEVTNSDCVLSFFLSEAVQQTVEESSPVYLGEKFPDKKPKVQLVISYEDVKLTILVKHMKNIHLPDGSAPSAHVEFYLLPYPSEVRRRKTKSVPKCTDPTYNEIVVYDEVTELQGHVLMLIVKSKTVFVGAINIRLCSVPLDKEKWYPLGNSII
# [7] = biological target: Transcription initiation factor TFIID subunit 1 (Homo sapiens, UniProt P21675); experiment: Selectivity interaction (BRD panel (HTRF assay)) EUB0000007b TAF1
# D(1B) dopamine receptor [8] = biological target: T3, D(1B) dopamine receptor (Homo sapiens, UniProt P21918); experiment: Selectivity interaction (GPCR panel (PDSP screen)) EUB0000730a DRD5
# T3 sequence (P21918 whole entry): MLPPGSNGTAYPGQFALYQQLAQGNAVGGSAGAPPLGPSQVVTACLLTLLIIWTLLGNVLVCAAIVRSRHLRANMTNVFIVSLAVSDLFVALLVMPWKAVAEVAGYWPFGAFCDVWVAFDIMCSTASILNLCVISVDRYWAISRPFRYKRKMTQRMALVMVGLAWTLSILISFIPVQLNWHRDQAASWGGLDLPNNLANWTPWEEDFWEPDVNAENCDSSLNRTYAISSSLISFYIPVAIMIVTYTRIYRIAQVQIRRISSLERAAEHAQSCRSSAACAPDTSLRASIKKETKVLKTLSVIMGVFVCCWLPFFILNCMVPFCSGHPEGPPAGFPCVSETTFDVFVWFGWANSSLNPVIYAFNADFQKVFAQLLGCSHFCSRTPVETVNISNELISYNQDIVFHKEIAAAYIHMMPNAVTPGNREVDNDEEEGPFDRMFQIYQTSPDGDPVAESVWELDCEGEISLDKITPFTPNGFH
# [9] = biological target: 5'-AMP-activated protein kinase catalytic subunit alpha-1 (Homo sapiens, UniProt Q13131); experiment: Selectivity interaction (Enzyme panel (Invitrogen)) EUB0000730a PRKAA1
# [10] = biological target: MAP kinase-activated protein kinase 2 (Homo sapiens, UniProt P49137); experiment: Selectivity interaction (Enzyme panel (Invitrogen)) EUB0000730a MAPKAPK2
# [11] = biological target: Macrophage metalloelastase (Homo sapiens, UniProt P39900); experiment: Selectivity interaction (MMPs panel (FRET assay)) EUB0000730a MMP12
# Aurora kinase A = Aurora kinase A (Homo sapiens, UniProt O14965); experiment: Selectivity interaction (Enzyme panel (Invitrogen)) EUB0000730a STK6
# Interstitial collagenase = Interstitial collagenase (Homo sapiens, UniProt P03956); experiment: Selectivity interaction (MMPs panel (FRET assay)) EUB0000730a MMP1
# Interstitial collagenase, sequence (P03956 whole entry): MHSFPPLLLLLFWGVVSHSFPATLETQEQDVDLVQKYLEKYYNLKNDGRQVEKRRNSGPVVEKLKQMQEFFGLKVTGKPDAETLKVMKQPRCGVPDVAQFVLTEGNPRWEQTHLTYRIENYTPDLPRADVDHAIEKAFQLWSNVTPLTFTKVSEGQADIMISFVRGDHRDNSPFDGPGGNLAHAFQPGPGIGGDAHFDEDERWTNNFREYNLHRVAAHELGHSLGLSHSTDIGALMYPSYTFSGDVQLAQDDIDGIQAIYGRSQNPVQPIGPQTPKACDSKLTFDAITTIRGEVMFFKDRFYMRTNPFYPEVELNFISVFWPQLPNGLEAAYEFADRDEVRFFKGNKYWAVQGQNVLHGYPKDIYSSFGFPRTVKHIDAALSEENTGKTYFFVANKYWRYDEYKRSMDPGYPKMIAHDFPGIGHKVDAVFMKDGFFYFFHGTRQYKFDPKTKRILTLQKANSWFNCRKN
# Stromelysin-1 = Stromelysin-1 (Homo sapiens, UniProt P08254); experiment: Selectivity interaction (MMPs panel (FRET assay)) EUB0000730a MMP3
# Stromelysin-1, sequence (P08254 whole entry): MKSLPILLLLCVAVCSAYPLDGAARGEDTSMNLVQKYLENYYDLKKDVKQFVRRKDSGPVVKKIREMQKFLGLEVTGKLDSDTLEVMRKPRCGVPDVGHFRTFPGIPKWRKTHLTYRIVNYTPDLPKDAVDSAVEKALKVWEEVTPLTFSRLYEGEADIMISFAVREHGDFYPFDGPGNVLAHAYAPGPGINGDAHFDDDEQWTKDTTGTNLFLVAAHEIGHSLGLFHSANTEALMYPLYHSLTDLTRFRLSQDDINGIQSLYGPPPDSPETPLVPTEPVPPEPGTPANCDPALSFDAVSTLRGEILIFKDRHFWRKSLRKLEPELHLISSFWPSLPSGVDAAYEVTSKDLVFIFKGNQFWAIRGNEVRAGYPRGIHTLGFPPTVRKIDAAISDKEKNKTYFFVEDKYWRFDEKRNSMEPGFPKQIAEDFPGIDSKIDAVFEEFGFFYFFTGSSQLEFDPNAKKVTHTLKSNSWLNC
# Matrilysin = biological target: T4, Matrilysin (Homo sapiens, UniProt P09237); experiment: Selectivity interaction (MMPs panel (FRET assay)) EUB0000730a MMP7
# T4 sequence (P09237 whole entry): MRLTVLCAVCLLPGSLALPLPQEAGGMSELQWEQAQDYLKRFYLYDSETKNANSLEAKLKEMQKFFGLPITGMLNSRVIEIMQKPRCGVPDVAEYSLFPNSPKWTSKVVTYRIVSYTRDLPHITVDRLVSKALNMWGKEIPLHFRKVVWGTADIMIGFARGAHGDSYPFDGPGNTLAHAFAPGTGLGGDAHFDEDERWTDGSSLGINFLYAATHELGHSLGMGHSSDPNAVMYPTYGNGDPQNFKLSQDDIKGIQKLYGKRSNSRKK
# Neutrophil collagenase = Neutrophil collagenase (Homo sapiens, UniProt P22894); experiment: Selectivity interaction (MMPs panel (FRET assay)) EUB0000730a MMP8
# Neutrophil collagenase, sequence (P22894 whole entry): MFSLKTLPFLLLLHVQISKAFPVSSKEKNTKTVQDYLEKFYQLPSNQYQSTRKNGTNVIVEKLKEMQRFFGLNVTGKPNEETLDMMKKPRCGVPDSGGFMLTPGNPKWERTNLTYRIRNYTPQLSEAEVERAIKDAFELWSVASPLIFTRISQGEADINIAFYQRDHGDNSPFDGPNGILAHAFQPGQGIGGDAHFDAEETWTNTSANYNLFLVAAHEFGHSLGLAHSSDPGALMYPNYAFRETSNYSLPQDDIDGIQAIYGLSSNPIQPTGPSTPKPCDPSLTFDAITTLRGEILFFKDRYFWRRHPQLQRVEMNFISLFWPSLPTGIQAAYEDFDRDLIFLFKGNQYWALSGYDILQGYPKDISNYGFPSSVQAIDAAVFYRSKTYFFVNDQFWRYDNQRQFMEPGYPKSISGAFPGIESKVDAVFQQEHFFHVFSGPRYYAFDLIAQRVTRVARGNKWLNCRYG
# [12] = biological target: cAMP-dependent protein kinase catalytic subunit alpha (Homo sapiens, UniProt P17612); experiment: Selectivity interaction (Enzyme panel (Invitrogen)) EUB0000730a PRKACA
# D(1B) dopamine receptor [13] = biological target: T3, D(1B) dopamine receptor; settings: at 10 µM
# [14] = biological target: Cyclin-dependent kinase 3 (Homo sapiens) (UniProt Q00526); settings: at 100 nM
# [15] = biological target: Cyclin-dependent kinase 19 (Homo sapiens) (UniProt Q9BWU1); settings: at 100 nM
# Cyclin-dependent kinase 19 (Homo sapiens), sequence (Q9BWU1 whole entry): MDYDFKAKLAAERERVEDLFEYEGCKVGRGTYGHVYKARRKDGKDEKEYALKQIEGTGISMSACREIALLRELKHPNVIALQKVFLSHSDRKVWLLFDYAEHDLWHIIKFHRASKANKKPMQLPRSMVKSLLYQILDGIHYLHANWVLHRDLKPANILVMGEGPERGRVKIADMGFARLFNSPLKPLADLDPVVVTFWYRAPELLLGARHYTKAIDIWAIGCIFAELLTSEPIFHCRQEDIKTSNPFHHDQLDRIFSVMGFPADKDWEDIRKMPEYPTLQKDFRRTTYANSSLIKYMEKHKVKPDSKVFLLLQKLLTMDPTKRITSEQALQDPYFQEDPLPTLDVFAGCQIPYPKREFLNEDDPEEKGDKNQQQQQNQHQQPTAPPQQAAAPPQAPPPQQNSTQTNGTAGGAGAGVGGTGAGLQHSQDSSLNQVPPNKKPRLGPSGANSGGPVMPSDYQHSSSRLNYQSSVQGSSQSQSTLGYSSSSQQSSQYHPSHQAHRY
# [16] = biological target: Cyclin-dependent kinase-like 3 (Homo sapiens) (UniProt Q8IVW4); settings: at 100 nM
# [17] = biological target: Interferon-induced, double-stranded RNA-activated protein kinase (Homo sapiens) (UniProt P19525); experiment: Selectivity interaction (KinomeScan (DiscoverX)) EUB0000310b EIF2AK2
# [18] = biological target: Voltage-dependent L-type calcium channel subunit alpha-1C (Homo sapiens, UniProt Q13936); experiment: Selectivity interaction (Eurofins Panlabs panel (receptors, ion channel, and other enzymes)) EUB0000310b CACNA1C; settings: at 10 µM
# [19] = biological target: STE20/SPS1-related proline-alanine-rich protein kinase (Homo sapiens) (UniProt Q9UEW8); experiment: Selectivity interaction (KinomeScan (DiscoverX)) EUB0000310b STK39
# [20] = biological target: Sigma intracellular receptor 2 (Homo sapiens, UniProt Q5BJF2); experiment: Selectivity interaction (GPCR panel (PDSP screen)) EUB0000310b TMEM97
# [21] = biological target: Serine/threonine-protein kinase 38-like (Homo sapiens, UniProt Q9Y2H1); experiment: Selectivity interaction (KinomeScan (DiscoverX)) EUB0000310b STK38L
# Serine/threonine-protein kinase 38-like, sequence (Q9Y2H1 2-464 limits assumed): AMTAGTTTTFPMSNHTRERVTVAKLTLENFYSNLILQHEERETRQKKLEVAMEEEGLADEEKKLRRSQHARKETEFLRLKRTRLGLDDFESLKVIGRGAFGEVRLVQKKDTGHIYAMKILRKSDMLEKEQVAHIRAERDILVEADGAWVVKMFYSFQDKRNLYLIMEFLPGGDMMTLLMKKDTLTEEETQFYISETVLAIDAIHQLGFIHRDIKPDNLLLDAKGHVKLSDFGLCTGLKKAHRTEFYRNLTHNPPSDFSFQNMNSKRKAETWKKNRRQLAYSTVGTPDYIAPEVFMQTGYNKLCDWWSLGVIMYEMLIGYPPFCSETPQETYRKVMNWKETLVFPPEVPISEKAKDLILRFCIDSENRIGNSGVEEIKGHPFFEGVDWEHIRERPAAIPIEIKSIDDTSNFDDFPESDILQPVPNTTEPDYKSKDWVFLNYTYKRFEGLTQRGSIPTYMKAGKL
# [22] = biological target: Dual specificity mitogen-activated protein kinase kinase 1 (Homo sapiens, UniProt Q02750); experiment: Selectivity interaction (Kinase panel (enzymatic assay)) EUB0000684a MAP2K1
# [23] = biological target: Dual specificity mitogen-activated protein kinase kinase 2 (Homo sapiens, UniProt P36507); experiment: Selectivity interaction (Kinase panel (enzymatic assay)) EUB0000684a MAP2K2
# [24] = biological target: Dual specificity tyrosine-phosphorylation-regulated kinase 1B (Homo sapiens, UniProt Q9Y463); experiment: Selectivity interaction (KinomeScan (DiscoverX)) EUB0000297b DYRK1B; settings: at 1 µM
# [25] = biological target: T2, Gamma-aminobutyric acid receptor subunit alpha-1; experiment: Selectivity interaction (GPCR panel (PDSP screen)) EUB0000297b GABRA1
# [26] = biological target: Rho-associated protein kinase 1 (Homo sapiens) (UniProt Q13464); experiment: Selectivity interaction (KinomeScan (DiscoverX)) EUB0000297b ROCK1; settings: at 1 µM
# [27] = biological target: Beta-3 adrenergic receptor (Homo sapiens, UniProt P13945); experiment: Selectivity interaction (GPCR panel (PDSP screen)) EUB0001135a ADRB3; settings: at 10 µM
# Histamine H1 receptor = Histamine H1 receptor (Homo sapiens, UniProt P35367); experiment: Selectivity interaction (GPCR panel (PDSP screen)) EUB0001135a HRH1; settings: at 10 µM
# [28] = biological target: T5, Death-associated protein kinase 3 (Homo sapiens, UniProt O43293); experiment: Selectivity interaction (KinomeScan (DiscoverX, competition-binding assay)) EUB0001135a DAPK3
# [29] = biological target: T5, Death-associated protein kinase 3; experiment: Selectivity interaction (KinomeScan (DiscoverX)) EUB0001135a DAPK3; settings: at 1 µM
# [30] = biological target: G protein-coupled receptor kinase 3 (Homo sapiens, UniProt P35626); experiment: Selectivity interaction (KinomeScan (DiscoverX, competition-binding assay)) EUB0001135a ADRBK2
# [31] = biological target: T6, G protein-coupled receptor kinase 3 (Homo sapiens) (UniProt P35626); experiment: Selectivity interaction (KinomeScan (DiscoverX)) EUB0001135a ADRBK2; settings: at 1 µM
# T6 sequence (whole entry): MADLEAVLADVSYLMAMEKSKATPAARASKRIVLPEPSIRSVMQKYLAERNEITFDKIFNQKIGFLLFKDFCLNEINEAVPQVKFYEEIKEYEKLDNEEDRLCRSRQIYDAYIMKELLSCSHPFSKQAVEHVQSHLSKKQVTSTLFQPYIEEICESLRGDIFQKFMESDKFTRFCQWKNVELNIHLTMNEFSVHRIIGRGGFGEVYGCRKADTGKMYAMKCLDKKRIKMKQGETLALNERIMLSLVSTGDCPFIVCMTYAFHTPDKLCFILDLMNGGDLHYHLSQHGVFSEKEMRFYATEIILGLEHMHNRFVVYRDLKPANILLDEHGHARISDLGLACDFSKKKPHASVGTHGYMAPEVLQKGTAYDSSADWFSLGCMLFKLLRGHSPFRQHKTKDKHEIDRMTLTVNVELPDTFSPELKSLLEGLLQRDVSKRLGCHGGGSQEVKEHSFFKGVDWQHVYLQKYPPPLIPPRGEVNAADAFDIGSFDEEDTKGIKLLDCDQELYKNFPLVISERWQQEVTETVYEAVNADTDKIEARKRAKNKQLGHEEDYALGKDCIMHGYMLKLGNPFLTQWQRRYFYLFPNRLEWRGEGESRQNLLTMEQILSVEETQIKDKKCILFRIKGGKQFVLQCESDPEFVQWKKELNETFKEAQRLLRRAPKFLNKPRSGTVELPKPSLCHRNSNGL
# D(1B) dopamine receptor [32] = biological target: T3, D(1B) dopamine receptor; experiment: Selectivity interaction (GPCR panel (PDSP screen)) EUB0000727a DRD5
# [33] = biological target: Serine/threonine-protein kinase mTOR (Homo sapiens) (UniProt P42345); experiment: Selectivity interaction (KinomeScan (DiscoverX)) EUB0000727a MTOR; settings: at 100 nM
# [34] = biological target: SRSF protein kinase 1 (Homo sapiens) (UniProt Q96SB4); experiment: Selectivity interaction (KinomeScan (DiscoverX)) EUB0000727a SRPK1; settings: at 100 nM
# [35] = biological target: Serine/threonine-protein kinase PAK 2 (Homo sapiens) (UniProt Q13177); experiment: Selectivity interaction (KinomeScan (DiscoverX)) EUB0000727a PAK2
# T1 sequence (Q01959 whole entry): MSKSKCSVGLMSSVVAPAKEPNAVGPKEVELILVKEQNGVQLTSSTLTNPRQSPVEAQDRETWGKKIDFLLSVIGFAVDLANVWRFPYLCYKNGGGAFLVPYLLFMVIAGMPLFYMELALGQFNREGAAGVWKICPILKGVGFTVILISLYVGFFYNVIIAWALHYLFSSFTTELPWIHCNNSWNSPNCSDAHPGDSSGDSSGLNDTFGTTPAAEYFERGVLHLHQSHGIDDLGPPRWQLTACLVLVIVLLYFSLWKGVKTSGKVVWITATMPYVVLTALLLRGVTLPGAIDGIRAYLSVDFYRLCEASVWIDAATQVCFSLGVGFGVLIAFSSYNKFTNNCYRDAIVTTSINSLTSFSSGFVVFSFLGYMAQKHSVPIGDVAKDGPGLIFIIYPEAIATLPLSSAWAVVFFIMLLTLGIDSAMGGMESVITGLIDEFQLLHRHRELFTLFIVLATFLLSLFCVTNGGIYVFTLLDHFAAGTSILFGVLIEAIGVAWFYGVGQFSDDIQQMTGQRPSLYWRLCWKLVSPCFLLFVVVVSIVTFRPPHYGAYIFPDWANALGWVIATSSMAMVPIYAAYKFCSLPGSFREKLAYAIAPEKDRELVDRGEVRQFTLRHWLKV
compound,measurement,setting,value
O=C(Nc1ccc(-n2nc(-c3cccnc3)cc2C(F)(F)F)cn1)c1ccc(-c2ccccc2)c(F)c1 [BI 2049],Ki,[1],> 10000 nM
CC(C)(C)OC(=O)N1CCCC1CNC1CCC(c2cc(F)ccc2F)(S(=O)(=O)c2ccc(Cl)cc2)CC1 (stereo unspecified) [GSI-NC],Ki,[2],> 10000 nM
O=c1nc(-c2ccccn2)sc2ccccc12 [BTZO-1],% of control,[3],36%
same,% of control,[4],47%
same,Ki,[5],934 nM
CN(C)C(=O)/C(C#N)=C/c1ccc(-c2nc3cnc4c(ccn4C)c3n2C2CCCCC2)o1,% of control,[6],82%
same,IC50,[7],170 nM
CCOC(=O)c1cc2cc(-c3cc(C(=O)NCc4ccc(C(=O)O)cc4)nn3C)ccc2[nH]1 [BI 4394],Ki,D(1B) dopamine receptor [8],> 10000 nM
same,IC50,[9],1900 nM
same,IC50,[10],1100 nM
same,IC50,[11],> 22000 nM
same,IC50,Aurora kinase A,1300 nM
same,IC50,Interstitial collagenase,> 22000 nM
same,IC50,Stromelysin-1,> 22000 nM
same,IC50,Matrilysin,> 22000 nM
same,IC50,Neutrophil collagenase,> 22000 nM
same,IC50,[12],1600 nM
same,% of inhibition,D(1B) dopamine receptor [13],60%
same,% of control,[14],43%
same,% of control,[15],0%
same,% of control,[16],0%
C[C@H](NC(=O)c1cnc2n1[C@](C)(Cc1ccc(C#N)cc1)C(=O)N2c1cc(Cl)c(F)c(Cl)c1)C(=O)NC1(c2ccccn2)CC1 [BI 1950],% of control,[17],34%
same,% of inhibition,[18],72%
same,% of control,[19],24%
same,% of inhibition,[20],26%
same,% of control,[21],49%
O=C(c1ccc(F)c(F)c1Nc1ccc(I)cc1F)N1CC(O)([C@@H]2CCCCN2)C1 [COBIMETINIB],IC50,[22],31 nM
same,IC50,[23],23 nM
CN([C@@H]1CCc2c(CC(=O)O)c3ccccc3n2C1)S(=O)(=O)c1ccc(F)cc1 [MK-7246],% of control,[24],44%
same,Ki,[25],1110 nM
same,% of control,[26],34%
O=C1NC(c2ccccn2)Sc2ccccc21 (stereo unspecified) [BTZO-4],% of inhibition,[27],32.4%
same,% of inhibition,Histamine H1 receptor,49.9%
same,Kd,[28],> 10000 nM
same,% of control,[29],0%
same,Kd,[30],> 10000 nM
same,% of control,[31],42%
Cn1nc(C(=O)NCc2ccc(C(=O)O)cc2)cc1-c1ccc2[nH]ccc2c1 [BI 4395],Ki,D(1B) dopamine receptor [32],> 10000 nM
same,% of control,[33],31%
same,% of control,[34],33%
same,% of control,[35],23%
